From the NIST ThermoML archive (doi:10.1016/j.jct.2015.08.019)
± gives the expanded uncertainty stated by the source.

Assay: excess molar enthalpy (molar enthalpy of mixing); xn = mol fraction of the nth substance listed
Details: 473 K, 101.3 kPa, Crystal, Calvet calorimetry

**Q.** Which excess molar enthalpy (x2 = 0.25) does the source give for `O=[N+]([O-])[O-].[Tl+]` [thallium nitrate] + O=[N+]([O-])[O-].[Cs+] here?
**A.** 0.299 ± 0.0621 kcal/mol

**Q.** And the excess molar enthalpy (x2 = 0.5)?
**A.** 0.343 ± 0.0717 kcal/mol

**Q.** And the excess molar enthalpy (x2 = 0.75)?
**A.** 0.248 ± 0.0526 kcal/mol
